Laboratory results: patent publication US20160290995A1, “METHODS OF SELECTING AKT AGONISTS OR ANTAGONISTS” (OREGON HEALTH & SCIENCE UNIVERSITY, priority 2015, published 2016)

Experiments:
Akt phosphorylation [1] = assay: Immunoblotting of Akt phosphorylation in C2 myoblast whole cell lysates; assay type: cell-based, mouse; conditions: different concentrations of IGF-I, C2 myoblasts
Method: (§1) Whole cell protein lysates were prepared as described (Mukherjee A and Rotwein P, Mol Endorcrinol 22, 1238-1250 (2008); incorporated by reference herein). Protein aliquots (15 μg/lane) were resolved by SDS-PAGE (12% separating gel), followed by transfer to Immobilon-FL membranes, and blocking with 50% AquaBlock solution. Membranes were incubated sequentially with primary and secondary antibodies, as described (Mukherjee and Rotwein, 2008 supra). Primary antibodies were incubated for 12-16 hr at a 1:1000 dilution, except for α-tubulin (1:10,000), and secondary antibodies for 90 min at 1:5000. Images were captured using the LiCoR Odyssey and version 3.0 analysis software (Lincoln, Nebr.).

Akt phosphorylation [2] = assay: Immunoblotting of Akt and PRAS40 phosphorylation in 10T1/2 whole cell lysates; assay type: cell-based, mouse
Method: (§2) Cells were imaged every 2-min for 60 min. At the end of the incubation period whole cell lysates were collected.
as §1
C3H10T1/2 cells stably expressing FoxO1-clover were incubated in SFM with Fluorobrite imaging media for 90 min followed by addition of insulin [1400 pM], EGF [4.2 nM], PDGF-AA [1400 pM], or PDGF BB [104 pM]. Whole protein lysates were collected after 0, 5, 15, 30, 60, and 90 min of growth factor exposure by washing cells twice with cold PBS and addition of RIPA buffer containing protease and phosphatase inhibitors (Mukherjee A and Rotwein P, Mol Endocrinol 22, 1238-1250 (2008); incorporated by reference herein). Protein aliquots (12.5 μg/lane) were resolved by SDS PAGE (10% separating gels), and transferred onto Immobilon-FL membranes. Membranes were incubated in 50% AquaBlock for 60 min, followed by addition of primary antibodies at 1:1000 dilution for 16 hr, and secondary antibodies for 90 min at 1:5000. Images were collected using the LiCoR Odyssey and analysis software version 3.0 (Lincoln, Nebr.).

Akt [3] = assay: FOXO1-clover reporter live-cell imaging (relative nuclear intensity) in C3H10T1/2 fibroblasts; assay type: cell-based, mouse; conditions: for change of nuclear levels of the reporter on growth factor addition (result in words): different concentrations; for change of nuclear levels of the reporter on growth factor addition (result in words) / time to half-maximal translocation/accumulation of reporter in the cytoplasm after onset of incubation / time to maximal translocation values: cells pre-incubated in SFM, population level; for time to half-maximal translocation/accumulation of reporter in the cytoplasm after onset of incubation / time to maximal translocation values: different growth factor concentrations
Method: as §2
10T1/2 cells and C2 myoblasts were incubated in serum-free medium for 90 min. R3-IGF-I was added in supplemented FluoroBrite [0 to 500 pM], and cells were imaged every 2-min for 60 min. […]
(§3) Live cell imaging was performed using an EVOS FL Auto microscope with a stage top incubator that was maintained at 37° C. and 95% humidified air with 5% CO2. Images were collected at 100× magnification at different intervals, using a 10× Fluorite objective (numerical aperture: 0.3), and a GFP light cube (excitation peak, 472/22 nm; emission peak, 510/42 nm). Images were analyzed with the NIH ImageJ plug-in Fiji (NIH, Bethesda, Md.), after using the Polynomial Fit plug-in to subtract background fluorescence, the Stack Reg (rigid registration) plug-in to register images, and the Gaussian Blur plug-in (at 2-pixels) to average fluorescence across pixels. Individual cells were manually tracked using the mTrackJ plug-in (Meijering E et al, Methods Enzymol 504, 183-200 (2012); incorporated by reference herein) by selecting a single point in the nucleus. Cells that died, divided, or migrated out of frame were excluded from analysis. In experiments performed in 6-well dishes, two locations on opposite sides of the well were imaged, while for studies using 24-well plates, one central location was imaged. In each location, at least 25 cells were tracked.

Akt [4] = assay: FOXO1-clover reporter live-cell imaging in C2 myoblasts; assay type: cell-based, mouse; conditions: different concentrations of R3-IGF-I, 60 min
Method: C3H10T1/2 mouse embryonic fibroblasts (ATCC #CCL226) were incubated in DMEM supplemented with 10% FBS. Mouse C2 myoblasts (Yaffe and Saxel, 1977) were grown in DMEM supplemented with 10% FBS and 10% newborn calf serum. Cells were transduced at 50% of confluent density with concentrated virus in the presence of 6 μg/ml polybrene, as described (Mukherjee A et al, Mol Cell Biol 30, 1018-1027 (2010); incorporated by reference herein). Cells were then selected by incubation with puromycin (2 μg/ml) for one week. Surviving cells were sorted by fluorescence intensity using a Becton-Dickinson Influx cell sorter at the OHSU Flow Cytometry Core Facility. Reporter expression was stable for at least 10 passages in each sorted cell population.
10T1/2 cells and C2 myoblasts were incubated in serum-free medium for 90 min. R3-IGF-I was added in supplemented FluoroBrite [0 to 500 pM], and cells were imaged every 2-min for 60 min.

Akt [5] = assay: FoxO1-clover reporter live-cell imaging in HeLa cells; assay type: cell-based; conditions: IGF-I 500 pM, insulin 1400 pM, EGF 4.2 nM, PDGF-BB 4.1 nM, PDGF-AA 3.5 nM; 90 min
Method: HeLa cells (ATCC #CCL2) were incubated in DMEM supplemented with 10% FBS. Cells were transduced at 50% of confluent density with concentrated FoxO1-clover virus in the presence of polybrene (6 μg/ml), as described (Gross S M and Rotwein P, Skelet Muscle 3, doi10.1186/2044-5040-3-10 (2013); incorporated by reference herein), and sorted by fluorescence intensity with a Becton-Dickinson Influx cell sorter. Reporter expression was stable for at least 10 passages in each sorted cell population. C3H10T1/2 mouse embryonic fibroblasts (ATC #CCL226) stably expressing FoxO1-clover (Gross and Rotwein, 2015), were maintained under selection with puromycin (2 μg/ml).
as §3, with “tracked. The relative nuclear intensity of the FoxO1-clover reporter protein was calculated in each cell by normalizing the values measured at time 0 to 100%. This corresponded to incubation in serum-free medium (SFM). In graphs in which single cell responses were plotted with C3H10T1/2 cells, we applied a time-weighted smoothing filter to each data point. This consisted of averaging contributions from the two prior and two succeeding times (adding 50% of the prior or succeeding time point, and 25% of the next succeeding or earlier time point to 100% of the value of the time point in question, and then dividing by 2.5).” for “tracked.”
Short-term responses to individual growth factors: C3H10T1/2 cells were incubated in serum-free Fluorobrite medium plus 2 mM L-glutamine and 0.1% bovine serum albumin for 90 min. Different concentrations of growth factors were added and images were collected every 2 min for 90 min. Growth factors included insulin [0 to 1400 pM], EGF [0 to 4.2 nM], PDGF-AA [0 to 1400 pM], or PDGF-BB [0 to 104 pM]. HeLa cells were incubated in serum-free Fluorobrite medium for 120 min and then incubated with insulin [1400 pM], EGF [4.2 nM], PDGF-AA [3.5 nM], PDGF-BB [4.1 nM], or R3-486 IGF-I [500 pM], with images collected every 2 min.

IGF-I receptor = IGF-I receptor (Homo sapiens, UniProt P08069); conditions: cited from earlier work
Chain of IGF-I receptor (P08069 31-736 limits assumed, species assumed): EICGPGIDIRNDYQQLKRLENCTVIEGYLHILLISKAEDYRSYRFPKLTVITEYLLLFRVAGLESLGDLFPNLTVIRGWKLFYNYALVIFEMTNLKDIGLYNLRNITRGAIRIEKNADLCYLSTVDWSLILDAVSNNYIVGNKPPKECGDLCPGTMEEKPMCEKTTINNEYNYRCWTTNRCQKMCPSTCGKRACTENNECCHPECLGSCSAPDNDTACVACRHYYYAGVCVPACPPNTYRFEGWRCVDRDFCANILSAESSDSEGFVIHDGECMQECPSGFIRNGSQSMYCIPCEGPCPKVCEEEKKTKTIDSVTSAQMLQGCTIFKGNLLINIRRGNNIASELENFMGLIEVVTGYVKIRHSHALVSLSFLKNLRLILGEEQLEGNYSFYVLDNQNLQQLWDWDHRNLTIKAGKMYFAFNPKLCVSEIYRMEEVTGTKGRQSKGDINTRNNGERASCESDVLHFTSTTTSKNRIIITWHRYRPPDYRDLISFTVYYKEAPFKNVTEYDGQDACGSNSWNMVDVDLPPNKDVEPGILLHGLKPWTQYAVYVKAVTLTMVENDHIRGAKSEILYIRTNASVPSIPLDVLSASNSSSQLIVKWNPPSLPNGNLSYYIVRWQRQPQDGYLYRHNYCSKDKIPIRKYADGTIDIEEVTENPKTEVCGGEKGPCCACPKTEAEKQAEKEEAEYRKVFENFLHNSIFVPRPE
Chain of IGF-I receptor (P08069 741-1367 partner limits assumed, species assumed): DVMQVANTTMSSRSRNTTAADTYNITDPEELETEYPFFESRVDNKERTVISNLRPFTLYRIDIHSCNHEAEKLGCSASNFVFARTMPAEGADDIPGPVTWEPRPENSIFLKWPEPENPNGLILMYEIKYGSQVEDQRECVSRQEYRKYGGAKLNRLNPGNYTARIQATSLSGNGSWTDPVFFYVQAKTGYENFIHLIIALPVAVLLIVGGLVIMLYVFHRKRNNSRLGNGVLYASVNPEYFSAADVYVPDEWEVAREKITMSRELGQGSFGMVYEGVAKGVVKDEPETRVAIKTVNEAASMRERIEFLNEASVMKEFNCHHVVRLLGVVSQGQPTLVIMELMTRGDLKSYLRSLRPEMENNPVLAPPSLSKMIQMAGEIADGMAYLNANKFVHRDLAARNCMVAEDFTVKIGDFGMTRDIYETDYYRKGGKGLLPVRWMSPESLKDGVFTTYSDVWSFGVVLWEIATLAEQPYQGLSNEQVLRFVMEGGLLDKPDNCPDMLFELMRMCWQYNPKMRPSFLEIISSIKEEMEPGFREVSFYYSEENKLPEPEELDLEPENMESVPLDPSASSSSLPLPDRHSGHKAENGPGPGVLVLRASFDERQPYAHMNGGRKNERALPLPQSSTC

R3-IGF-I: growth factor purchased from GroPep; binds minimally to IGF binding proteins; activates Akt
extent of Akt phosphorylation (immunoblot) (Akt phosphorylation [1]): dose-dependent increase in the extent of Akt phosphorylation
Akt phosphorylation (pAkt T308 immunoblot) (Akt phosphorylation [2]; 60 min, 10% FBS, PDGF-BB 206 pM, R3-IGF-I 1 nM, BMP-2 15 nM): stimulation of Akt phosphorylation
extent of Akt phosphorylation (immunoblot) (Akt phosphorylation [2]; different concentrations of IGF-I, 10T1/2 cells): dose-dependent increase in the extent of Akt phosphorylation
response to IGF-I after prior EGF (Akt [3]; EGF 4.2 nM for 60 min, then IGF-I 500 pM): rapid, extensive, and sustained signaling response
change of nuclear levels of the reporter on growth factor addition (result in words) (Akt [3]): rapid and dose-dependent reduction in nuclear levels of the reporter
time to half-maximal translocation/accumulation of reporter in the cytoplasm after onset of incubation (Akt [3]): 8 to 10 min
time to maximal translocation values (Akt [3]): 14 to 16 min
response to a second treatment with the same growth factor (Akt [3]; sequential exposures, IGF-I 50 or 500 pM with 90-min washout, EGF 4.2 nM after 60 min EGF): qualitatively similar population responses to each dose
subcellular localization of FOXO1-clover (result in words) (Akt [3]; serum-starved cells, 60 min, 10% FBS, PDGF-BB 206 pM, R3-IGF-I 1 nM, BMP-2 15 nM): rapid and sustained translocation of the reporter from the nucleus to the cytoplasm
reporter response in C2 myoblasts compared with 10T1/2 cells (Akt [4]): marked increase in sensitivity to IGF-I
signaling response in HeLa FoxO1-clover cells (result in words) (Akt [5]): sustained signaling effects

insulin: recombinant human insulin (Tocris Bioscience)
time at which phosphorylation of Akt and PRAS40 was detected (Akt phosphorylation [2]; insulin 1400 pM): ≤ 5 min
time course of Akt and PRAS40 phosphorylation (result in words) (Akt phosphorylation [2]; insulin 1400 pM, EGF 4.2 nM, PDGF-AA 1400 pM, PDGF-BB 104 pM, up to 90 min): rapid and sustained
change of nuclear levels of the reporter on growth factor addition (result in words) (Akt [3]): rapid, dose-dependent, and sustained decrease in nuclear levels of FoxO1-clover
time to half-maximal translocation/accumulation of reporter in the cytoplasm after onset of incubation (Akt [3]): 8 to 15 min
time to maximal translocation values (Akt [3]): ~20 min
signaling response in HeLa FoxO1-clover cells (result in words) (Akt [5]): sustained signaling effects
affinity for IGF-I receptor relative to insulin receptor (fold less) (IGF-I receptor): ~1000 fold
